Measured values taken from PubChem BioAssay AID2060503 (Molecular Pharmacology Branch, DTP, NCI, 2025).

System: 817829-284-R-J1-PDC complex spheroids, viability
Assay: Anticancer human tumor 817829-284-R-J1-PDC patient-derived colon adenocarcinoma cell line growth inhibition [GQUAD]
Conditions: for IC50: curve of first compound; for viability, T/C: stronger effect = lower value; active = viability on the fitted dose curve at most 10% of control; inactive = the rest
Excerpt: DNA G-quadruplex Stabilizer Agents in Combinations in Complex Spheroids
A high-throughput screen of multi-cell type tumor spheroids was designed to identify active combinations of DNA G-quadruplex stabilizer agents and targeted small molecules. Complex spheroids include a stromal component modeled by human endothelial cells (HUVEC) and fibroblasts modeled by human mesenchymal stem cells (MSCs). The concentration ranges selected for each drug and investigational agent were based upon clinically achievable concentrations if the clinical Cmax of the agent was known.
Compounds. The drugs and investigational agents: pidnarulex (CX-5461; NSC782164), APTO-253 (NSC789042), BRACO-19 (NSC847499), peposertib (NSC802822), ceralasertib (NSC780249), elimusertib (NSC800525), camonsertib (NSC841442), AZD-1390 (NSC803789), olaparib (NSC753686), talazoparib (NSC767125), ART-558 (NSC835418), sotorasib (NSC818433), MRTX-1133 (NSC836407), SN-38 (NSC673596), topotecan (NSC609699), etoposide (NSC141540), doxorubicin (NSC123127), gemcitabine (NSC613327), 5-fluorouracil (NSC19893), paclitaxel (NSC125973), vemurafenib (NSC761431), panobinostat (NSC761190), R-306465 (JNJ-16241199; NSC773264), adavosertib (NSC754352), TP-3654 (NSC805149), carboplatin (NSC241240), KSQ-4279 (NSC840948), and staurosporine (NSC755774) were obtained from the National Cancer Institute (NCI) Developmental Therapeutics Program Chemical Repository (34). The FDA-approved anticancer drug set is available from the NCI Developmental Therapeutics Program. […] The stock solutions were prepared in dimethyl sulfoxide (DMSO, Sigma-Aldrich, St. Louis, MO, cat. D2650) at 800-fold the tested concentration and stored at -70 degrees C prior to their use. All drugs and investigational agents were tested over a range starting from a high concentration at or near the clinical Cmax and decreasing in half-log increments. If the clinical Cmax for an agent had not been determined, the highest concentration tested was 10 microM.
2.3 Cell Culture. All cells were maintained in an incubator at 37 degrees C and 5% CO2 with 95% humidity. The PDC lines were cultured according to standard operating procedures established by the NCI PDMR. All PDCs were thawed and cultured in Matrigel-coated flasks prepared with a working solution of 1X Ham's F-12 nutrient mix, without supplementation (Invitrogen, cat. 11765054), 100 U/mL penicillin-streptomycin (Invitrogen, cat. 15140122), and 2.5% Matrigel (Corning Inc., cat. 354248) for the first three passages. The 857933-349-R-J2-PDC line was cultured in 6C/Colon 1B media, which includes advanced DMEM/F-12 (Thermo Fisher Scientific, cat. 12634028), 10 mM HEPES (Thermo Fisher Scientific, cat. 15630080), 1X GlutaMAX supplement (Thermo Fisher Scientific, cat. 35050061), 0.1 mg/mL primocin (InvivoGen, cat. ant-pm-2), 10% defined fetal bovine serum, heat inactivated (HyClone Laboratories Inc., cat. SH30070.03HI), 50% L-WRN conditioned media (ATCC, cat. CRL-3276), 1.25 mM N-Acetyl-L-cysteine (Sigma-Aldrich, cat. A9165), 10 mM nicotinamide (Sigma-Aldrich, cat. N0636), 1X B-27 supplement (Thermo Fisher Scientific, cat. 17504044), 1X N-2 supplement (Thermo Fisher Scientific, cat. 17502048), 10 microM Y-27632 dihydrochloride (Tocris Bioscience, cat. 1254), and 50 ng/mL human EGF recombinant protein (Thermo Fisher Scientific, cat. PHG0311). The 485176-168-R4-J1-PDC line was cultured in Panc media, which includes all 6C/Colon 1B media components plus 100 ng/mL human FGF-10 (Thermo Fisher Scientific, cat. 100-26), 500 nM SB-431542 (Selleckchem, cat. S1067), and gastrin (Tocris, cat. 3006).
[…]

[1] = second compound 0.0316 µM, first compound 0.0316 µM
[2] = second compound 0.0316 µM, first compound 0.1 µM
[3] = second compound 0.0316 µM, first compound 0.316 µM
[4] = second compound 0.0316 µM, first compound 1 µM
[5] = second compound 0.0316 µM, first compound 3.16 µM
[6] = second compound 0.0316 µM, first compound 10 µM
[7] = second compound 0.1 µM, first compound 0.0316 µM
[8] = second compound 0.1 µM, first compound 0.1 µM
[9] = second compound 0.1 µM, first compound 0.316 µM
[10] = second compound 0.1 µM, first compound 1 µM
[11] = second compound 0.1 µM, first compound 3.16 µM
[12] = second compound 0.1 µM, first compound 10 µM
[13] = second compound 0.316 µM, first compound 0.0316 µM
[14] = second compound 0.316 µM, first compound 0.1 µM
[15] = second compound 0.316 µM, first compound 0.316 µM
[16] = second compound 0.316 µM, first compound 1 µM
[17] = second compound 0.316 µM, first compound 3.16 µM
[18] = second compound 0.316 µM, first compound 10 µM
[19] = second compound 1 µM, first compound 0.0316 µM
[20] = second compound 1 µM, first compound 0.1 µM
[21] = second compound 1 µM, first compound 0.316 µM
[22] = second compound 1 µM, first compound 1 µM
[23] = second compound 1 µM, first compound 3.16 µM
[24] = second compound 1 µM, first compound 10 µM
[25] = second compound 3.16 µM, first compound 0.0316 µM
[26] = second compound 3.16 µM, first compound 0.1 µM
[27] = second compound 3.16 µM, first compound 0.316 µM
[28] = second compound 3.16 µM, first compound 1 µM
[29] = second compound 3.16 µM, first compound 3.16 µM
[30] = second compound 3.16 µM, first compound 10 µM
[31] = second compound 10 µM, first compound 0.0316 µM
[32] = second compound 10 µM, first compound 0.1 µM
[33] = second compound 10 µM, first compound 0.316 µM
[34] = second compound 10 µM, first compound 1 µM
[35] = second compound 10 µM, first compound 3.16 µM
[36] = second compound 10 µM, first compound 10 µM
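Note: spheroids exposed to agents for 7 days before readout.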
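Throughout, for viability, T/C: percent viability relative to DMSO vehicle control taken as 100%.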

C=CC(=O)N1CCN(c2nc(=O)n(-c3c(C)ccnc3C(C)C)c3nc(-c4c(O)cccc4F)c(F)cc23)C(C)C1 (centres undefined) + CN(C)c1ccc(Nc2c3ccc(NC(=O)CCN4CCCC4)cc3nc3cc(NC(=O)CCN4CCCC4)ccc23)cc1
> 10 µM: IC50 (second compound 0.0316 µM) | IC50 (second compound 0.1 µM) | IC50 (second compound 0.316 µM) | IC50 (second compound 1 µM) | IC50 (second compound 3.16 µM)
7.18 µM: IC50 (second compound 10 µM)
inactive: viability, T/C [1] 101% | viability, T/C [2] 103% | viability, T/C [3] 97.5% | viability, T/C [4] 99.4% | viability, T/C [5] 83.7% | viability, T/C [6] 80% | viability, T/C [7] 99.7% | viability, T/C [8] 103% | viability, T/C [9] 104% | viability, T/C [10] 98.7% | viability, T/C [11] 106% | viability, T/C [12] 85.4% | viability, T/C [13] 91.3% | viability, T/C [14] 107% | viability, T/C [15] 89.6% | viability, T/C [16] 108% | viability, T/C [17] 86.3% | viability, T/C [18] 76.2% | viability, T/C [19] 96.2% | viability, T/C [20] 107% | viability, T/C [21] 92.3% | viability, T/C [22] 105% | viability, T/C [23] 92.2% | viability, T/C [24] 72.1% | viability, T/C [25] 95.6% | viability, T/C [26] 97.5% | viability, T/C [27] 98.8% | viability, T/C [28] 92.3% | viability, T/C [29] 92.3% | viability, T/C [30] 69.3% | viability, T/C [31] 101% | viability, T/C [32] 105% | viability, T/C [33] 92.7% | viability, T/C [34] 92.3% | viability, T/C [35] 84.3% | viability, T/C [36] 36.4%

Cc1cccc(N(C)C(=O)C2C(O)CCN2c2nc(C)cc(C(F)(F)F)c2C#N)c1 (centres undefined) + CN(C)c1ccc(Nc2c3ccc(NC(=O)CCN4CCCC4)cc3nc3cc(NC(=O)CCN4CCCC4)ccc23)cc1
> 10 µM: IC50 (second compound 0.0316 µM) | IC50 (second compound 0.1 µM) | IC50 (second compound 0.316 µM) | IC50 (second compound 1 µM) | IC50 (second compound 3.16 µM)
inactive: viability, T/C [1] 101% | viability, T/C [2] 102% | viability, T/C [3] 92.5% | viability, T/C [4] 90% | viability, T/C [5] 92.8% | viability, T/C [6] 85.4% | viability, T/C [7] 89.3% | viability, T/C [8] 109% | viability, T/C [9] 90.1% | viability, T/C [10] 112% | viability, T/C [11] 93.3% | viability, T/C [12] 79.9% | viability, T/C [13] 99.3% | viability, T/C [14] 96.8% | viability, T/C [15] 90.6% | viability, T/C [16] 93.1% | viability, T/C [17] 99.4% | viability, T/C [18] 90.8% | viability, T/C [19] 95.5% | viability, T/C [20] 88.2% | viability, T/C [21] 90.5% | viability, T/C [22] 83.7% | viability, T/C [23] 94% | viability, T/C [24] 81% | viability, T/C [25] 99.6% | viability, T/C [26] 99.3% | viability, T/C [27] 94.3% | viability, T/C [28] 91.8% | viability, T/C [29] 111% | viability, T/C [30] 82.1% | viability, T/C [31] 97.7% | viability, T/C [32] 88.7% | viability, T/C [33] 85.7% | viability, T/C [34] 69.4% | viability, T/C [35] 52.2% | viability, T/C [36] 40.2%
4.03 µM: IC50 (second compound 10 µM)
